Laboratory results taken from ChEMBL document CHEMBL4665709, “Rational Avoidance of Protease Cleavage Sites and Symmetrical End-Tagging Significantly Enhances the Stability and Therapeutic Potential of Antimicrobial Peptides” (J Med Chem, 2020).
Converted amounts (≈) assume the structure as drawn. Where a SMILES comes first, the peptide text is derived from it.

Columns and labels:
[1] = Therapeutic index, ratio of MHC for human RBC to geometric mean of peptide MIC for Streptococcus agalactiae H92; format: toxicity; conditions: human red blood cells (RBC), read-out: TI
[2] = Therapeutic index, ratio of MHC for human RBC to geometric mean of peptide MIC for Staphylococcus epidermidis ATCC 12228; format: toxicity; conditions: human red blood cells (RBC), read-out: TI
[3] = Therapeutic index, ratio of MHC for human RBC to geometric mean of peptide MIC for methicillin-resistant Staphylococcus aureus 43300; format: toxicity; conditions: human red blood cells (RBC), read-out: TI
[4] = Therapeutic index, ratio of MHC for human RBC to geometric mean of peptide MIC for Enterococcus faecalis ATCC 29212; format: toxicity; conditions: human red blood cells (RBC), read-out: TI
[5] = Therapeutic index, ratio of MHC for human RBC to geometric mean of peptide MIC for Staphylococcus aureus ATCC 29213; format: toxicity; conditions: human red blood cells (RBC), read-out: TI
[6] = Therapeutic index, ratio of MHC for human RBC to geometric mean of peptide MIC for Staphylococcus aureus 11011; format: toxicity; conditions: human red blood cells (RBC), read-out: TI
[7] = Therapeutic index, ratio of MHC for human RBC to geometric mean of peptide MIC for Salmonella pullorum 7913; format: toxicity; conditions: human red blood cells (RBC), read-out: TI
[8] = Therapeutic index, ratio of MHC for human RBC to geometric mean of peptide MIC for Salmonella typhimurium 7731; format: toxicity; conditions: human red blood cells (RBC), read-out: TI
[9] = Therapeutic index, ratio of MHC for human RBC to geometric mean of peptide MIC for Salmonella choleraesuis 503; format: toxicity; conditions: human red blood cells (RBC), read-out: TI
[10] = Therapeutic index, ratio of MHC for human RBC to geometric mean of peptide MIC for Escherichia coli UB1005; format: toxicity; conditions: human red blood cells (RBC), read-out: TI
[11] = Therapeutic index, ratio of MHC for human RBC to geometric mean of peptide MIC for Salmonella typhimurium 14028; format: toxicity; conditions: human red blood cells (RBC), read-out: TI
[12] = Therapeutic index, ratio of MHC for human RBC to geometric mean of peptide MIC for Escherichia coli ATCC 25922; format: toxicity; conditions: human red blood cells (RBC), read-out: TI
Staphylococcus aureus [13] = assay: Antibacterial activity against Staphylococcus aureus ATCC 29213 after 18 to 24 hrs by CLSI-based broth microdilution method; format: functional; conditions: time hrs 18-24
Staphylococcus aureus [14] = assay: Antibacterial activity against Staphylococcus aureus 11011 after 18 to 24 hrs by CLSI-based broth microdilution method; format: functional; conditions: time hrs 18-24
Escherichia coli [15] = assay: Antibacterial activity against Escherichia coli ATCC 25922 after 18 to 24 hrs by CLSI-based broth microdilution method; format: functional; conditions: time hrs 18-24
Escherichia coli [16] = assay: Antibacterial activity against Escherichia coli UB1005 after 18 to 24 hrs by CLSI-based broth microdilution method; format: functional; conditions: time hrs 18-24
Salmonella typhimurium [17] = assay: Antibacterial activity against Salmonella typhimurium 14028 after 18 to 24 hrs by CLSI-based broth microdilution method; format: functional, Salmonella enterica subsp. enterica serovar Typhimurium; conditions: Salmonella enterica, time hrs 18-24
Salmonella typhimurium [18] = assay: Antibacterial activity against Salmonella typhimurium 7731 after 18 to 24 hrs by CLSI-based broth microdilution method; format: functional, Salmonella enterica subsp. enterica serovar Typhimurium; conditions: Salmonella enterica, time hrs 18-24
[19] = Antibacterial activity against Salmonella pullorum 7913 after 18 to 24 hrs by CLSI-based broth microdilution method; format: functional, Salmonella enterica subsp. enterica serovar Pullorum; conditions: Salmonella enterica, time hrs 18-24
Salmonella enterica = assay: Antibacterial activity against Salmonella choleraesuis 503 after 18 to 24 hrs by CLSI-based broth microdilution method; format: functional; conditions: time hrs 18-24
[20] = system: Staphylococcus epidermidis; assay: Antibacterial activity against Staphylococcus epidermidis ATCC 12228 after 18 to 24 hrs by CLSI-based broth microdilution method; format: functional; conditions: time hrs 18-24
Enterococcus faecalis = assay: Antibacterial activity against Enterococcus faecalis ATCC 29212 after 18 to 24 hrs by CLSI-based broth microdilution method; format: functional; conditions: time hrs 18-24
Staphylococcus aureus [21] = assay: Antibacterial activity against methicillin-resistant Staphylococcus aureus 43300 after 18 to 24 hrs by CLSI-based broth microdilution method; format: functional; conditions: time hrs 18-24
Streptococcus agalactiae = assay: Antibacterial activity against Streptococcus agalactiae H92 after 18 to 24 hrs by CLSI-based broth microdilution method; format: functional; conditions: time hrs 18-24
Erythrocyte = assay: Hemolytic activity in human RBC assessed as hemolysis; format: ADME, cell-based
[22] = Hemolytic activity in human RBC assessed as hemolysis at 1 to 128 uM relative to control; format: ADME, cell-based, Erythrocyte; conditions: human red blood cells (RBC), dose 1-128 µM, read-out: Activity
[23] = Cytotoxicity against mouse RAW264.7 cells assessed as cell viability at 128 uM by MTT assay relative to control; format: cell-based; conditions: read-out: Activity
[24] = Cytotoxicity against HEK-293T cells assessed as cell viability at 128 uM by MTT assay relative to control; format: cell-based; conditions: human, read-out: Activity

SMILES | selectivity ratio [1] | selectivity ratio [2] | selectivity ratio [3] | selectivity ratio [4] | selectivity ratio [5] | selectivity ratio [6] | selectivity ratio [7] | selectivity ratio [8] | selectivity ratio [9] | selectivity ratio [10] | selectivity ratio [11] | selectivity ratio [12] | MIC (Staphylococcus aureus [13]) [µM] | MIC (Staphylococcus aureus [14]) [µM] | MIC (Escherichia coli [15]) [µM] | MIC (Escherichia coli [16]) [µM] | MIC (Salmonella typhimurium [17]) [µM] | MIC (Salmonella typhimurium [18]) [µM] | MIC [19] [µM] | MIC (Salmonella enterica) [µM] | further results
CC[C@H](C)[C@H](N)C(=O)N[C@H](C(=O)N[C@@H](CS)C(=O)N[C@@H](CCCNC(=N)N)C(=O)N[C@@H](CCCCN)C(=O)N1CCC[C@H]1C(=O)N[C@H](C(=O)N[C@H](C(=O)N[C@@H](CS)C(=O)N[C@@H](CCCNC(=N)N)C(=O)N[C@@H](CCCCN)C(=O)N1CCC[C@H]1C(=O)N[C@H](C(=O)N[C@H](C(=O)N[C@@H](CS)C(=O)N[C@@H](CCCNC(=N)N)C(=O)N[C@@H](CCCCN)C(=O)N1CCC[C@H]1C(=O)N[C@H](C(=O)N[C@H](C(N)=O)[C@@H](C)CC)[C@@H](C)CC)[C@@H](C)CC)[C@@H](C)CC)[C@@H](C)CC)[C@@H](C)CC)[C@@H](C)CC (H-IICRKPIICRKPIICRKPII-NH2) | 2 | 2 | 2 | 2 | 2 | 2 | 14.2 | 14.2 | 14.2 | 14.2 | 14.2 | 14.2 | > 64 | > 64 | 4 (≈ 9.5 µg/mL) | 4 (≈ 9.5 µg/mL) | 8 (≈ 19 µg/mL) | 8 (≈ 19 µg/mL) | 32 (≈ 76 µg/mL) | 16 (≈ 38 µg/mL) | MIC [20]: 64 µM (≈ 152 µg/mL); MIC (Enterococcus faecalis): > 64 µM; MIC (Staphylococcus aureus [21]): 64 µM (≈ 152 µg/mL); MIC (Streptococcus agalactiae): 64 µM (≈ 152 µg/mL); MHC (Erythrocyte): > 128 µM; hemolysis at up to 128 µM [22]: < 5%; viability at 128 µM [23]: > 90%; viability at 128 µM [24]: > 90%
CC[C@H](C)[C@H](N)C(=O)N[C@H](C(=O)N[C@@H](CS)C(=O)N[C@@H](CCCNC(=N)N)C(=O)N[C@@H](CCCCN)C(=O)N1CCC[C@H]1C(=O)N[C@H](C(=O)N[C@H](C(=O)N[C@@H](CS)C(=O)N[C@@H](CCCNC(=N)N)C(=O)N[C@@H](CCCCN)C(=O)N1CCC[C@H]1C(=O)N[C@H](C(=O)N[C@H](C(=O)N[C@@H](CS)C(=O)N[C@@H](CCCNC(=N)N)C(=O)N[C@@H](CCCCN)C(=O)N1CCC[C@H]1C(=O)N[C@H](C(=O)N[C@H](C(=O)N[C@@H](CS)C(=O)N[C@@H](CCCNC(=N)N)C(=O)N[C@@H](CCCCN)C(=O)N1CCC[C@H]1C(=O)N[C@H](C(=O)N[C@H](C(=O)N[C@@H](CS)C(=O)N[C@@H](CCCNC(=N)N)C(=O)N[C@@H](CCCCN)C(=O)N1CCC[C@H]1C(=O)N[C@H](C(=O)N[C@H](C(N)=O)[C@@H](C)CC)[C@@H](C)CC)[C@@H](C)CC)[C@@H](C)CC)[C@@H](C)CC)[C@@H](C)CC)[C@@H](C)CC)[C@@H](C)CC)[C@@H](C)CC)[C@@H](C)CC)[C@@H](C)CC (H-IICRKPIICRKPIICRKPIICRKPIICRKPII-NH2) | 2 | 2 | 2 | 2 | 2 | 2 | 40.3 | 40.3 | 40.3 | 40.3 | 40.3 | 40.3 | > 64 | > 64 | 2 (≈ 7.6 µg/mL) | 2 (≈ 7.6 µg/mL) | 4 (≈ 15.2 µg/mL) | 2 (≈ 7.6 µg/mL) | 8 (≈ 30.4 µg/mL) | 4 (≈ 15.2 µg/mL) | MIC [20]: 64 µM (≈ 243 µg/mL); MIC (Enterococcus faecalis): > 64 µM; MIC (Staphylococcus aureus [21]): 64 µM (≈ 243 µg/mL); MIC (Streptococcus agalactiae): > 64 µM; MHC (Erythrocyte): > 128 µM; hemolysis at up to 128 µM [22]: < 5%; viability at 128 µM [23]: > 90%; viability at 128 µM [24]: > 90%
CC[C@H](C)[C@H](N)C(=O)N[C@H](C(=O)N[C@H](C(=O)N[C@@H](CS)C(=O)N[C@@H](CCCNC(=N)N)C(=O)N[C@@H](CCCCN)C(=O)N1CCC[C@H]1C(=O)N[C@H](C(=O)N[C@H](C(=O)N[C@@H](CS)C(=O)N[C@@H](CCCNC(=N)N)C(=O)N[C@@H](CCCCN)C(=O)N1CCC[C@H]1C(=O)N[C@H](C(=O)N[C@H](C(=O)N[C@@H](CS)C(=O)N[C@@H](CCCNC(=N)N)C(=O)N[C@@H](CCCCN)C(=O)N1CCC[C@H]1C(=O)N[C@H](C(=O)N[C@H](C(=O)N[C@@H](CS)C(=O)N[C@@H](CCCNC(=N)N)C(=O)N[C@@H](CCCCN)C(=O)N1CCC[C@H]1C(=O)N[C@H](C(=O)N[C@H](C(=O)N[C@@H](CS)C(=O)N[C@@H](CCCNC(=N)N)C(=O)N[C@@H](CCCCN)C(=O)N1CCC[C@H]1C(=O)N[C@H](C(=O)N[C@H](C(=O)N[C@H](C(N)=O)[C@@H](C)CC)[C@@H](C)CC)[C@@H](C)CC)[C@@H](C)CC)[C@@H](C)CC)[C@@H](C)CC)[C@@H](C)CC)[C@@H](C)CC)[C@@H](C)CC)[C@@H](C)CC)[C@@H](C)CC)[C@@H](C)CC)[C@@H](C)CC (H-IIICRKPIICRKPIICRKPIICRKPIICRKPIII-NH2) | 2 | 2 | 2 | 2 | 2 | 2 | 32 | 32 | 32 | 32 | 32 | 32 | > 64 | > 64 | 4 (≈ 16.1 µg/mL) | 2 (≈ 8.05 µg/mL) | 4 (≈ 16.1 µg/mL) | 4 (≈ 16.1 µg/mL) | 8 (≈ 32.2 µg/mL) | 4 (≈ 16.1 µg/mL) | MIC [20]: > 64 µM; MIC (Enterococcus faecalis): > 64 µM; MIC (Staphylococcus aureus [21]): > 64 µM; MIC (Streptococcus agalactiae): > 64 µM; MHC (Erythrocyte): > 128 µM; hemolysis at up to 128 µM [22]: < 5%; viability at 128 µM [23]: > 90%; viability at 128 µM [24]: > 90%
